Laboratory results: US20240156795A1, “METHODS AND COMPOSITIONS FOR THE TREATMENT OF DRUG RESISTANT TOPICAL INFECTIONS” (Lankenau Institute for Medical Research, priority 2020, published 2024)
Several values for one entry are separate records, joined by “and”; a condition that tells them apart may be missing. Equal entries are not always repeated.

How the values were obtained:
[1] = i.v. infusion of >50% solutions, cardiac surgery trial (Bennett-Guerrero et al., 2009); cited from earlier work
HIF1 = HIF1 stabilization in cells from B6 HIF-luciferase reporter mice, assayed ex vivo; assay type: cell-based, mouse
Method: Cells derived from B6 HIF-luciferase reporter mice were assayed ex vivo to detect the stabilization of HIF1 protein. Values are means of duplicate determinations ±SD. In the course of studies of inhibitors of proline hydroxylase-domain protein (PHD), an enzyme regulating cellular HIF1 levels, we observed that 10 μM ciclopirox enhanced the readout by 15-fold (screening data not shown). […] The details for the assay protocol are published elsewhere.

Trichophyton rubrum = settings: seven strains of Trichophyton rubrum; reported by others [28]; cited from earlier work
IDO1 = target: T1, IDO1 (Homo sapiens, UniProt P14902); experiment: IDO1 activity in U937 cells, kynurenine formation after IFN-γ induction; assay type: cell-based; settings: IFN-γ induced, FIG. 2, read-out: IC50 for IDO inhibition in a cellular assay
T1 construct: endogenous in cells; host or cells: U937 cells, induced with IFN-γ
T1 sequence (P14902 whole entry): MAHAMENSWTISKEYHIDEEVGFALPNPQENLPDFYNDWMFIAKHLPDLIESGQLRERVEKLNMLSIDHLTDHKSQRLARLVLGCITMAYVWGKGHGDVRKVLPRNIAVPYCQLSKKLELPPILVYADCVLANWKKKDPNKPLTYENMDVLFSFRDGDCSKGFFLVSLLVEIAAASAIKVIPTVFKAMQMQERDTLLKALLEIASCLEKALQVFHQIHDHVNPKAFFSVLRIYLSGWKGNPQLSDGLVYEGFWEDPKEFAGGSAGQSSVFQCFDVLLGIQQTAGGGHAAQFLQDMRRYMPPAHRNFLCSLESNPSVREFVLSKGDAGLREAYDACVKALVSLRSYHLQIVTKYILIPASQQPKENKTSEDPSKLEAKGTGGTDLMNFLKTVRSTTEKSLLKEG
Method: IDO1 activity in U937 cells was assessed by spectrophotometric measurement of kynurenine formation in the medium at least 24 hours post-induction with IFN-γ. Values are means of duplicate determinations ±SD.
The IDOL enzyme was first recognized as an antimicrobial. The approved topical formulant ethyl pyruvate (EP) can also blunt IDO levels and reverse immunosuppression in the setting of cancer to enable immune eradication. […] This is finding is not previously reported in the literature. The details of the assay protocol are published elsewhere.

onychomycosis = settings: topical treatment of toenail fungus; cited from earlier work

## CCOC(=O)C(C)=O [EP, ethyl pyruvate]
[1]
  toxicity in humans: No significant toxicities were reported

## Cc1cc(C2CCCCC2)n(O)c(=O)c1 [ciclopirox, ciclopirox olamine]
HIF1; 10 μM ciclopirox, screening data not shown
  enhancement of HIF readout: 15 fold
HIF1; Mus musculus, follow-up study, FIG. 1, read-out: apparent EC50 for HIF level stimulation
  EC50: 5 µM
HIF1; follow-up study, FIG. 1
  maximal stimulation of HIF levels over the solvent control: ~35 fold
Trichophyton rubrum
  average MIC concentration: ~16 μg/ml and ~77 μM
IDO1
  IC50: ~2 µM
onychomycosis
  efficacy for complete clinical cure: ≤ 12%

## C=C1CCN([C@H](C)[C@](O)(Cn2cncn2)c2ccc(F)cc2F)CC1 [Jublia, efinaconazole]
onychomycosis
  efficacy for complete clinical cure: ≤ 18%

## OB1OCc2cc(F)ccc21 [Kerydin, tavarborole]
onychomycosis
  efficacy for complete clinical cure: ≤ 10%
